Source: patent US11352604B2, “Method of making cardiomyocytes from human pluripotent cells” (Wisconsin Alumni Research Foundation, priority 2016, dated 2022)

How the values were obtained:
Type in all cases: cell-based, human
hPSC-CMs [1] = test: Flow cytometry of differentiated cells (cTnT, MLC2v)
Protocol: Flow cytometry for internal antigens was done on dissociated cells using the same blocking, washing, secondary antibodies, and buffers as internal antigen immunofluorescence described above using mlc2v (proteintech, 1:100) and cardiac troponin T (Thermo Fisher Scientific, 1:200) in the 19-9-11 iPS cell line. Between washes and staining steps, dissociated cells were pelleted at 1,100 g for 5 minutes. Blocking and antibody staining steps were done in a volume of 100 μL, and washing steps in 1 mL in Eppendorf™ tubes.
(§1) Flow cytometry for live cell surface antigens was done on dissociated cells of the 19-9-11 iPS cell line with Thy1 biotin (1:200 Biolegend, with Life Technologies streptavidin direct conjugate at 1:1000) and SIRPα (1:200, Biolegend) in K20 and then analyzed at the UWCCC Flow Cytometry Laboratory using a BD LSRII Fortessa flow cytometer. For progenitor flow experiments, cells were dissociated as above for progenitor dissociation, centrifuged at 200×g, subjected to FACS to concentrate cells, and resuspended in 100 μL, of K2 media+rockI/Jag1 PE, BD Biosciences (1:20); Notch2 APC R&D Biosystems (1:10) and analyzed on either a BD FACSariaII cell sorter or BD LSRII Fortessa flow cytometer.

[2] = test system: day 5 cardiac progenitor cells; test: Propidium iodide cell cycle flow cytometry; conditions: day 5 cardiac progenitor cells
Protocol: Propidium iodide staining was performed on ethanol-fixed cells of the 19-9-11 iPS cell line with a low flow rate and linear mode fluorescence according to a previously published protocol (Darzynkiewicz and Juan, 2001).

[3] = test system: day 5 cardiac progenitors; test: Gene ontology / KEGG pathway analysis of pI:C up- and downregulated RNA-seq genes; conditions: pI:C top upregulated GO terms
Protocol: Day-5 cells from d3-5 untreated, TGFβ-treated, and pI:C-treated progenitors from the 19-9-11 iPS cell line were separately prepared as above for cell dissociation of progenitors from three different wells of each condition (for 9 total sequencing samples) and isolated as described above for RNA for RT-qPCR. rRNA-reduced Illumina TruSeq™ Stranded total RNA libraries were prepared and 1×100 bp single end sequencing was performed. To map and annotate RNA-seg data, STAR and HTSeq were used, respectively (Anders et al., 2015; Dobin and Gingeras, 2015). Annotated transcript counts were further processed with DeSEq2 for differential gene expression analysis (Love et al., 2014). Gene neighborhood analysis was performed with NEST (Jiang et al., 2015).

Jag1 = test: Flow cytometry of day 5 progenitors for Jag1 and Notch2
Text: as §1

hPSC-CMs [4] = test: Cardiomyocyte yield from dissociated and replated progenitors; conditions: primed vs untreated
Protocol: For dissociation of day 5 cells (for destructive analyses or live cell replating experiments), progenitors were dissociated with Versene (Thermo Fisher Scientific) for 10 minutes at 37° C., pipetted up and down 40 times, and then neutralized 1:1 v/v versene solution with “K20” medium (DMEM/F12 with 1×NEAA, 1× Glutamine, 0.1 mM (3-mercaptoethanol, and 20% Knockout Serum Replacer by volume, all Thermo Fisher Scientific). For destructive analyses, pellets were made by centrifugation at 1.1×1000 g for 5 minutes, aspiration of medium supernatant, snap-freezing in liquid nitrogen, and kept at −80° C. for until pellet lysis for DNA, protein, or RNA isolation.
For replating of progenitors and microtissue formation, after neutralization and cell counting, 0.8 million day-5 progenitors per well were spun down at 100×g as above and resuspended and plated in 1 mL K20 with 10 μM Y-27632 ROCK-inhibitor (Tocris) into Synthemax® II-SC coated 12 well plates (Corning). Media was then changed daily in 2 mL of “K2” (same formulation as K20 above, but with just 2% Knockout Serum Replacer), and changed daily. Differentiating hPSC-CMs from replated progenitors in this protocol beat by day 8 to 12.

[5] = test system: hPSC-CM sheets from replated progenitors; test: Video edge detection / beating analysis of cardiomyocyte sheets
Protocol: For quantification of spatial regularity and graphical presentation of time averaged beating in microtissue from the H9-cTnT-GFP (FIGS. 9A, C) or 19-9-11 (FIG. 9B) cell lines, .avi video files of low-powered (2.5× magnification) fields were recorded at a resolution of 1268×720 and a frame rate of 20/second. These videos were exported into a series of sequential .tiff files using Adobe Premiere, and then analyzed in MATLAB using previously described coding algorithms (Huebsch et al., 2015). Calculations of beat rate (before and after ivrabradine, […] for 2 hours, Sigma) were performed manually in the 19-9-11 cell line and multifocal patterns in untreated progenitor-derived sheets were represented as the average rate of beating for all foci present in a field.

[6] = KEGG_PATHWAY hsa03030:DNA replication
[7] = KEGG_PATHWAY hsa03430:Mismatch repair
[8] = KEGG_PATHWAY hsa03460:Fanconi anemia pathway
[9] = KEGG_PATHWAY hsa04110:Cell cycle
[10] = KEGG_PATHWAY hsa05034:Alcoholism
[11] = KEGG_PATHWAY hsa05203:Viral carcinogenesis
[12] = KEGG_PATHWAY hsa05322:Systemic lupus erythematosus

## polyinosinic-polycytidylic acid [pI:C]
hPSC-CMs [1]; comparable for pI:C-treated and untreated progenitors, hES and hiPS cell lines
  purity of cardiomyocytes marked by cardiac troponin T (cTnT) expression: 80-95%
hPSC-CMs [1]; day 30
  percentage of mlc2v+/cTnT+ hPSC-CMs: markedly increased
[2]
  fraction of cells in the G2/S phase of the cell cycle: increased
[3]; [6]
  % (genes in term): 2.3989%
  Count (upregulated genes in term): 18
[3]; [7]
  % (genes in term): 1.0662%
  Count (upregulated genes in term): 8
[3]; [8]
  % (genes in term): 1.3327%
  Count (upregulated genes in term): 10
[3]; [9]
  % (genes in term): 1.9991%
  Count (upregulated genes in term): 15
[3]; [10]
  % (genes in term): 4.6645%
  Count (upregulated genes in term): 35
[3]; [11]
  % (genes in term): 3.1985%
  Count (upregulated genes in term): 24
[3]; KEGG_PATHWAY hsa05218:Melanoma
  % (genes in term): 1.3327%
  Count (upregulated genes in term): 10
[3]; [12]
  % (genes in term): 4.7978%
  Count (upregulated genes in term): 36
Jag1
  number of Jag1 positive cells and median fluorescence signal-to-noise: increased
hPSC-CMs [4]; replated at high reseeding density
  increase in yield of cardiomyocytes: 4 fold
hPSC-CMs [4]; replated at lower density
  increase in yield of cardiomyocytes: 6 fold
[5]; primed progenitors
  contraction pattern of cell sheets from dissociated progenitors: highly organized, propagating waves of contraction
[5]; sheets from primed relative to untreated progenitors
  beat angle range: lower range
